Laboratory results from patent US20050245399A1, “Pyrazole derivatives as herbicidal compositions containing them” (ISHIHARA SANGYO KAISHA, LTD., priority 2004, published 2005).

What was measured:
Type in all cases: in vivo
[1] = test system: barnyardgrass (Echinochloa crus-galli L.), ECHCG; assay: Test Example 2 post-emergence (foliage treatment) herbicidal activity, ECHCG; settings: 63 g a.i./ha
Method in brief: (§1)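 Leaf stages at treatment differed per species: 1.1-2.1 for ECHCG, 1.0-2.0 for DIGSA, 0.1-1.5 for AMARE and 1.0-2 for ORYSA. Plants grew in pots of upland soil and were sprayed with wettable powder or emulsifiable concentrate in water (500 L/ha) plus spreader at 0.1% (v/v). Visual % control followed on days 20-23.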

[2] = test system: prickly sida (Sida spinosa L.), SIDSP; assay: Test Example 2 post-emergence (foliage treatment) herbicidal activity, SIDSP; settings: 63 g a.i./ha
Method in brief: (§2)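 Each species was evaluated for growth suppression by eye, 0% matching untreated and 100% meaning death, some 20 to 23 days after a single post-emergence foliar treatment applied in 500 L/ha of water carrying 0.1% (v/v) agricultural spreader.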

[3] = test system: prickly sida (Sida spinosa L.): SEDSP; assay: Test Example 1 pre-emergence herbicidal activity, SIDSP; settings: visually observed 20th to 23rd day after application
Method in brief: (§3)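 Upland soil pot test. Formulated compound (wettable powder or emulsifiable concentrate) in water, 500 L/ha, sprayed one day after sowing before emergence; % control rated by eye on day 20–23.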

[4] = test system: soybean (Glycine max Merr.), GLXMA; assay: Test Example 2 post-emergence (foliage treatment) herbicidal activity, GLXMA; settings: 63 g a.i./ha
Method in brief: as §2

[5] = test system: corn (Zea mays L.): ZEAMX; assay: Test Example 1 pre-emergence herbicidal activity, ZEAMX; settings: visually observed 20th to 23rd day after application
Method in brief: as §3

[6] = test system: redroot pigweed (Amaranthus retroflexus L.): AMARE; assay: Test Example 1 pre-emergence herbicidal activity, AMARE; settings: visually observed 20th to 23rd day after application
Method in brief: as §3

[7] = test system: velvetleaf (Abutilon theophrasti), ABUTH; assay: Test Example 2 post-emergence (foliage treatment) herbicidal activity, ABUTH; settings: 63 g a.i./ha
Method in brief: as §2

[8] = test system: corn (Zea mays L.), ZEAMX; assay: Test Example 2 post-emergence (foliage treatment) herbicidal activity, ZEAMX; settings: 63 g a.i./ha
Method in brief: as §2

[9] = test system: crabgrass (Digitaria sanguinalis L.), DIGSA; assay: Test Example 2 post-emergence (foliage treatment) herbicidal activity, DIGSA; settings: 63 g a.i./ha
Method in brief: as §1

[10] = test system: wheat (Triticum aestivum L.), TRZAX; assay: Test Example 2 post-emergence (foliage treatment) herbicidal activity, TRZAX; settings: 63 g a.i./ha
Method in brief: as §2

[11] = test system: rice (Oryza sativa L.: ORYSA); assay: Test Example 3 water application herbicidal activity (paddy), transplanted rice ORYSA; settings: 63 g a.i./ha, water application 4th day after transplantation of 2 leaf stage rice, visually observed 21st day after application; 0 = untreated control, 100 = complete kill
Method in brief: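 Submerged application in flooded paddy soil (3–4 cm water); weeds treated at 0.5-leaf stage, transplanted rice 4 d after transplanting. Scored visually as % growth control: weeds at 14 d, rice at 21 d.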

[12] = test system: green foxtail (Setaria viridis L.), SETVI; assay: Test Example 2 post-emergence (foliage treatment) herbicidal activity, SETVI; settings: 63 g a.i./ha
Method in brief: as §2

[13] = test system: rice (Oryza sativa L.), ORYSA; assay: Test Example 2 post-emergence (foliage treatment) herbicidal activity, ORYSA; settings: 63 g a.i./ha
Method in brief: as §1

[14] = test system: japanese bulrush (Scirpus juncoides: SCPJO); assay: Test Example 3 water application herbicidal activity (paddy), SCPJO; settings: 63 g a.i./ha, water application under submerged condition at 0.5 leaf stage, visually observed 14th day after application; 0 = untreated control, 100 = complete kill
Method in brief: (§4)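 Compound, as diluted wettable powder or emulsifiable concentrate, was pipetted into flood water at a set active-ingredient dose. Weeds were treated at 0.5-leaf stage after sowing or tuber planting; 2-leaf rice 4 days post-transplant. Control scored visually, 0 untreated to 100 complete kill, weeds day 14, rice day 21.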

[15] = test system: wheat (Triticum aestivum L.): TRZAX; assay: Test Example 1 pre-emergence herbicidal activity, TRZAX; settings: visually observed 20th to 23rd day after application
Method in brief: as §3

[16] = test system: barnyardgrass (Echinochloa crus-galli L.): ECHCG; assay: Test Example 1 pre-emergence herbicidal activity, ECHCG; settings: visually observed 20th to 23rd day after application
Method in brief: as §3

[17] = test system: green foxtail (Setaria viridis L.): SETVI; assay: Test Example 1 pre-emergence herbicidal activity, SETVI; settings: visually observed 20th to 23rd day after application
Method in brief: as §3

[18] = test system: rice (Oryza sativa L.): ORYSA; assay: Test Example 1 pre-emergence herbicidal activity, ORYSA; settings: visually observed 20th to 23rd day after application
Method in brief: as §3

[19] = test system: velvetleaf (Abutilon theophrasti): ABUTH; assay: Test Example 1 pre-emergence herbicidal activity, ABUTH; settings: visually observed 20th to 23rd day after application
Method in brief: as §3

[20] = test system: japanese ribbon wapato (Sagittaria pygmaea: SA GPY); assay: Test Example 3 water application herbicidal activity (paddy), SAGPY; settings: 63 g a.i./ha, water application under submerged condition, tubers planted, visually observed 14th day after application; 0 = untreated control, 100 = complete kill
Method in brief: as §4

[21] = test system: soybean (Glycine max Merr.): GLXMA; assay: Test Example 1 pre-emergence herbicidal activity, GLXMA; settings: visually observed 20th to 23rd day after application
Method in brief: as §3

[22] = test system: crabgrass (Digitaria sanguinalis L.): DIGSA; assay: Test Example 1 pre-emergence herbicidal activity, DIGSA; settings: visually observed 20th to 23rd day after application
Method in brief: as §3

[23] = test system: redroot pigweed (Amaranthus retroflexus L.), AMARE; assay: Test Example 2 post-emergence (foliage treatment) herbicidal activity, AMARE; settings: 63 g a.i./ha
Method in brief: as §1

[24] = test system: barnyardgrass (Echinochiloa oryzicola: ECHOR); assay: Test Example 3 water application herbicidal activity (paddy), ECHOR; settings: 63 g a.i./ha, water application under submerged condition at 0.5 leaf stage, visually observed 14th day after application; 0 = untreated control, 100 = complete kill
Method in brief: as §4

SMILES | growth controlling degree, ECHCO [1] | growth controlling degree, SIDSP [2] | Pre-emergence Herbicidal Activity SIDSP (growth controlling degree) ([3]; Rate 63 g a.i./ha) | growth controlling degree, GLXMA [4] | Pre-emergence Herbicidal Activity ZEAMX (growth controlling degree) ([5]; Rate 63 g a.i./ha) | Pre-emergence Herbicidal Activity AMARE (growth controlling degree) ([6]; Rate 63 g a.i./ha) | growth controlling degree, ABUTH [7] | growth controlling degree, ZEAMX [8] | growth controlling degree, DIGSP [9] | growth controlling degree, TRZAX [10] | growth controlling degrees (%) ORYSA [11] | growth controlling degree, SETVI [12] | growth controlling degree, ORYSA [13] | growth controlling degrees (%) SCPJO [14] | Pre-emergence Herbicidal Activity TRZAX (growth controlling degree) ([15]; Rate 63 g a.i./ha) | Pre-emergence Herbicidal Activity ECHCG (growth controlling degree) ([16]; Rate 63 g a.i./ha) | Pre-emergence Herbicidal Activity SETVI (growth controlling degree) ([17]; Rate 63 g a.i./ha) | growth controlling degrees (%) SAGPY [20] | growth controlling degree, AMARE [23] | growth controlling degrees (%) ECHOR [24] | further results
COc1c(Cl)cc(F)c(-c2nn(C)c(OC(F)F)c2Cl)c1NC(=O)/C=C/c1ccccc1 [Compound 1-31] | 80% | 100% | 100% | 60% | 10% | 100% | 100% | 40% | 80% | 20% | 40% | 95% | 60% | 60% | 10% | 80% | 100% | 95% | 100% | 100% | Pre-emergence Herbicidal Activity ORYSA (growth controlling degree) ([18]; Rate 63 g a.i./ha): 50%; Pre-emergence Herbicidal Activity ABUTH (growth controlling degree) ([19]; Rate 63 g a.i./ha): 100%; Pre-emergence Herbicidal Activity GLXMA (growth controlling degree) ([21]; Rate 63 g a.i./ha): 10%; Pre-emergence Herbicidal Activity DIGSP (growth controlling degree) ([22]; Rate 63 g a.i./ha): 100%
COc1c(Cl)cc(F)c(-c2nn(C)c(OC(F)F)c2Cl)c1NC(=O)c1ccc(F)cc1F [Compound 1-30] | 100% | 100% | 100% | 95% | 10% | 100% | 100% | 60% | 100% | 50% | 60% | 100% | 90% | 98% | 0% | 60% | 100% | 100% | 100% | 100% | Pre-emergence Herbicidal Activity ORYSA (growth controlling degree) ([18]; Rate 63 g a.i./ha): 10%; Pre-emergence Herbicidal Activity ABUTH (growth controlling degree) ([19]; Rate 63 g a.i./ha): 100%; Pre-emergence Herbicidal Activity GLXMA (growth controlling degree) ([21]; Rate 63 g a.i./ha): 10%; Pre-emergence Herbicidal Activity DIGSP (growth controlling degree) ([22]; Rate 63 g a.i./ha): 100%
COC(=O)Nc1c(OC)c(Cl)cc(F)c1-c1nn(C)c(OC(F)F)c1Cl [Compound 1-62] | 100% | 100% | 100% | 80% | 30% | 100% | 100% | 80% | 100% | 30% | 70% | 100% | 80% | 100% | 60% | 100% | 100% | 100% | 100% | 100% | Pre-emergence Herbicidal Activity ORYSA (growth controlling degree) ([18]; Rate 63 g a.i./ha): 80%; Pre-emergence Herbicidal Activity ABUTH (growth controlling degree) ([19]; Rate 63 g a.i./ha): 100%; Pre-emergence Herbicidal Activity GLXMA (growth controlling degree) ([21]; Rate 63 g a.i./ha): 20%; Pre-emergence Herbicidal Activity DIGSP (growth controlling degree) ([22]; Rate 63 g a.i./ha): 100%
COc1c(Cl)cc(F)c(-c2nn(C)c(OC(F)F)c2Cl)c1NC(=O)c1ccccc1C [Compound 1-24] | 100% | 100% | 100% | 100% | 10% | 100% | 100% | 90% | 98% | 50% | 60% | 100% | 98% | 80% | 20% | 95% | 100% | 90% | 100% | 100% | Pre-emergence Herbicidal Activity ORYSA (growth controlling degree) ([18]; Rate 63 g a.i./ha): 60%; Pre-emergence Herbicidal Activity ABUTH (growth controlling degree) ([19]; Rate 63 g a.i./ha): 100%; Pre-emergence Herbicidal Activity GLXMA (growth controlling degree) ([21]; Rate 63 g a.i./ha): 10%; Pre-emergence Herbicidal Activity DIGSP (growth controlling degree) ([22]; Rate 63 g a.i./ha): 100%
COc1c(Cl)cc(F)c(-c2nn(C)c(OC(F)F)c2Cl)c1N(C(=O)OCCl)C(=O)OCCl [Compound 1-55] | 60% | 100% |  | 30% |  |  | 100% | 10% | 0% | 10% | 50% | 30% | 50% | 95% |  |  |  | 100% | 100% | 100% | Pre-emergence Herbicidal Activity SIDSP (growth controlling degree) ([3]; Rate 125 g a.i./ha): 95%; Pre-emergence Herbicidal Activity ZEAMX (growth controlling degree) ([5]; Rate 125 g a.i./ha): 0%; Pre-emergence Herbicidal Activity AMARE (growth controlling degree) ([6]; Rate 125 g a.i./ha): 100%; Pre-emergence Herbicidal Activity TRZAX (growth controlling degree) ([15]; Rate 125 g a.i./ha): 20%; Pre-emergence Herbicidal Activity ECHCG (growth controlling degree) ([16]; Rate 125 g a.i./ha): 50%; Pre-emergence Herbicidal Activity SETVI (growth controlling degree) ([17]; Rate 125 g a.i./ha): 100%; Pre-emergence Herbicidal Activity ORYSA (growth controlling degree) ([18]; Rate 125 g a.i./ha): 10%; Pre-emergence Herbicidal Activity ABUTH (growth controlling degree) ([19]; Rate 125 g a.i./ha): 70%; Pre-emergence Herbicidal Activity GLXMA (growth controlling degree) ([21]; Rate 125 g a.i./ha): 0%; Pre-emergence Herbicidal Activity DIGSP (growth controlling degree) ([22]; Rate 125 g a.i./ha): 95%
